Measurements reported in patent US20230338270A1, “COSMETIC COMPOSITION FOR SKIN IMPROVEMENT COMPRISING, AS ACTIVE INGREDIENTS, POLYSACCHARIDES, YEAST EXTRACT, AND STRAIN FERMENTATION PRODUCT WITH CHARACTERISTICS OF PROBIOTICS” (LG HOUSEHOLD & HEALTH CARE LTD., priority 2020, published 2023).

Key:
Assay type in all cases: cell-based
[1] = test system: mouse Raw 264.7 cell line; assay: Suppression of inflammatory factor NO (Griess reagent, LPS-treated cells); conditions: 20 µg/mL, 1 µg/mL LPS, 24 hours, control group
Method: In order to identify the effect of the complexes of Preparation Examples on the production of NO as an inflammatory factor in cells, a mouse Raw 264.7 cell line was used, and a culture medium whose final pH was adjusted to 8.5 through addition of NaOH to Complete RPMI (RPMI:FBS:antibiotic = 10:1:0.1) was used as an initial culture medium.
When the Raw 264.7 cells appeared at the top of the culture medium after culture at 37° C. in the presence of 5% carbon dioxide for 24 hours, the cells were seeded in a 24-well plate in which a DMEM culture was prepared, followed by culture at 37° C. in the presence of 5% carbon dioxide for 24 hours. Thereafter, treatment was performed after diluting the complexes according to Preparation Examples 1 to 7 by the following concentrations while replacing the medium with a serum-free DMEM culture medium, followed by additional treatment of 1 µg/mL of LPS. After culture at 37° C. in the presence of 5% carbon dioxide for 24 hours, the supernatant was mixed with Griess reagent (Sigma-Aldrich) in a ratio of 1:1 to evaluate the ability to inhibit NO production with absorbance, and the average value was shown in Table 9 below.
NO production inhibition ability (%) = {1 - (NO production when compound is added / NO production in untreated group)} × 100
20 µg/mL of L-NMMA1 (N^G-Methyl-L-arginine acetate salt), an NO inhibitor, was used as a control group.

[2] = test system: human dermal papilla cells; assay: Activity of dermal papilla cells (CCK-8, optical density at 450 nm); conditions: 1 µM, control group
Method: In order to identify the effect of the complexes of Preparation Examples on dermal papilla cells, human dermal papilla cells (Promocell, C-12071) in the 4-8 passage were used as a cell line, and follicle dermal papilla cell growth media (Promocell, C-26501) were used as an initial culture medium.
Cells were seeded at a level of 3,000 to 6,000 cells per well in a 96-well plate, and cultured in an incubator at 37° C. in the presence of 5% carbon dioxide for 24 hours. Thereafter, the culture medium was replaced with DMEM medium supplemented with 0.1% fetal bovine serum (FBS) and cultured in an incubator at 37° C. in the presence of 5% carbon dioxide for 24 hours. Thereafter, the culture medium was replaced with DMEM supplemented with 0.1% FBS treated with the complexes according to Preparation Examples 1 to 7 by each concentration, followed by culture in an incubator at 37° C. in the presence of 5% carbon dioxide for 48 hours. After treating 10 µl of CCK-8 solutions per well, culture was performed at 37° C. for 1 hour, and optical density was measured at 450 nm.
The difference between the optical density measurement value and the initial measurement value after 48 hours for each well was standardized by dividing the difference by the initial measurement value for evaluation, and the average value was shown in Table 8 below. 1 µM minoxidil was treated as a control group. […]

[3] = test system: Staphylococcus aureus (S. aureus); assay: Effect on growth of harmful bacteria (optical density after culture in TSB); conditions: for Effect on reduction in harmful bacteria (in words): Table 7; for Harmful bacteria (S. aureus), average degree of increase or decrease compared to the untreated group: inoculated at a concentration of 1%, rotary culture 37° C. 16 hours
[4] = test system: Staphylococcus epidermidis (S. epidermidis); assay: Effect on growth of beneficial bacteria (optical density after culture in TSB); conditions: for Effect on increase in beneficial bacteria (in words): Table 7; for Beneficial bacteria (S. epidermidis), average degree of increase or decrease compared to the untreated group: inoculated at a concentration of 1%, rotary culture 37° C. 16 hours
human skin fibroblasts = assay: Collagen biosynthesis rate (procollagen type I C-peptide EIA kit); conditions: 10 ng/mL, 48 hours, control group
Method: The effect of the complexes of Preparation Examples on the collagen biosynthesis rate in the human skin fibroblasts was identified. Skin fibroblasts were cultured in complete DMEM culture at 37° C. in the presence of 5% carbon dioxide for 72 hours. After seeding in a 24-well plate, culture was performed at 37° C. in the presence of 5% carbon dioxide for 24 hours. After treating the complexes according to Preparation Examples and culturing at 37° C. in the presence of 5% carbon dioxide for 48 hours, only the supernatant was separated, and the collagen synthesis effect was observed by absorbance using a procollagen type I C-peptide (PIP) EIA kit.
Collagen biosynthesis increase rate (%) = {(Absorbance of complex treated group -Absorbance of untreated group) / Absorbance of untreated group} × 100
10 ng/mL of TGF-β, a cytokine, was used as a control group.

## CC(=O)O.CNC(=N)NCCC[C@H](N)C(=O)O [L-NMMA1, N^G-Methyl-L-arginine acetate salt]
[1]
  NO production inhibition ability, Average: 52.1%

## Nc1cc(N2CCCCC2)nc(N)[n+]1[O-] [Minoxidil, minoxidil]
[2]
  Dermal papilla cell activity, Average (optical density difference after 48 hours divided by initial value): 44.2

## Beta-glucan
[3]
  Effect on reduction in harmful bacteria (in words): no significant effect
  Harmful bacteria (S. aureus), average degree of increase or decrease compared to the untreated group: -0.78%
[4]
  Effect on increase in beneficial bacteria (in words): no significant effect
  Beneficial bacteria (S. epidermidis), average degree of increase or decrease compared to the untreated group: -0.26%

## Inulin
[3]
  Effect on reduction in harmful bacteria (in words): no significant effect
  Harmful bacteria (S. aureus), average degree of increase or decrease compared to the untreated group: -0.84%
[4]
  Effect on increase in beneficial bacteria (in words): no significant effect
  Beneficial bacteria (S. epidermidis), average degree of increase or decrease compared to the untreated group: 0.29%

## Maltodextrin
[3]
  Effect on reduction in harmful bacteria (in words): no significant effect
  Harmful bacteria (S. aureus), average degree of increase or decrease compared to the untreated group: 1.43%
[4]
  Effect on increase in beneficial bacteria (in words): no significant effect
  Beneficial bacteria (S. epidermidis), average degree of increase or decrease compared to the untreated group: 0.14%

## TGF-β
Human skin fibroblasts
  Collagen biosynthesis increase rate, Average: 36.6%
